“Also recorded” adds a separate entry of the source.
Legend:
[1] = biological target: T1, tpk2^as (Saccharomyces cerevisiae, UniProt P06245, M147G); assay: Inhibition of analog-sensitive PKA in Y133 tpk1Δtpk3Δtpk2^as during anaerobic growth on xylose; type: cell-based; settings: 10 μM 1-NM-PP1 added after 17 hours
T1 construct: tpk2as repair templates were generated by PCR of the whole ORF of tpk2as; endogenous in cells; host or cells: S. cerevisiae Y133 tpk1Δtpk3Δtpk2^as; allele placed at the chromosomal TPK2 locus by CRISPR/Cas9 editing
From the text: Y133 tpk1Δtpk3Δtpk2^as was generated using CRISPR/Cas9-mediated genome editing. TPK1 and TPK3 were deleted in Y133 independently and verified by PCR. sgRNA sequence ([…]) that targeted the location within TPK2 to be replaced was cloned into the pXIPHOS vector using Not1 (GenBank accession MG897154), which contains the constitutive RNR2 promoter driving the Cas9 gene and NatMX resistance gene, using gapped plasmid repair using HiFi DNA Assembly Master Mix from NEB. tpk2as repair templates were generated by PCR of the whole ORF of tpk2as from a strain containing mutants of the TPK genes that are sensitive to the ATP-analogue inhibitor 1-NM-PP1 (TPK1 M164G, TPK2 M147G, TPK3 M165G). Purified repair templates were co-transformed at a 20-fold molar excess with the pXIPHOS-TPK2 sgRNA plasmid into Y133 tpk1Δtpk3Δ strain. Colonies resistant to nourseothricin were restreaked onto YPD two times to remove the plasmid (and were verified to now be sensitive to nourseothricin) and tpk2as presence was verified by sequencing. Y133 tpk1Δtpk3Δtpk2^as was grown in xylose anaerobically for 17 hours at which point 10 μM 1-NM-PP1 or DMSO control was added to the cultures.

[2] = test system: PKA; assay: PKA activity assay: in vitro phosphorylation of a PKA substrate by cell lysate; type: biochemical, Saccharomyces cerevisiae; settings: 50 μM H-89
Protocol: PKA activity assay. Measurement of PKA activity was performed on lysed cells using the PKA Kinase Activity Assay Kit from ABCAM. Cultures were grown anaerobically in xylose for three doublings (to OD˜0.5), at which 10 mL of cells were collected by centrifugation for 3 minutes at 3000 rpm, in preparation for lysis. Supernatant was removed under anaerobic conditions and the cells were resuspended in 1 mL of SB buffer (1 M sorbitol, 20 mM Tris HCl, pH 7.4) with 300 units of zymolyase (Amsbio) and 10 μL of protease inhibitor cocktail IV (Millipore). Cells were incubated for 10 minutes at 30° C. anaerobically. Cells were collected by […] for 5 minutes at 350×g and washed 1× with SB buffer under anaerobic conditions. Cells were resuspended in 750 μL HLB buffer (10 mM Tris HCl, pH 7.4, 10 mM NaCl, 3 mM MgCl2, 0.3% (vol/vol) NP-40, 10% (vol/vol) glycerol) with 10 μL protease inhibitor cocktail IV and incubated on ice for 10 minutes, anaerobically. […] Lysis was verified using microscopy and total protein abundance was determined using a Bradford assay. […] The reaction was detected using a TECAN Infinite 200 Pro with a wavelength of 450 nm. […] Relative PKA activity was calculated by subtracting […] to remove background, followed by normalization to total protein abundance for each sample. […]

[3] = test system: Y128; assay: Inhibition of growth using hydroxyurea during anaerobic growth on xylose; type: cell-based, Saccharomyces cerevisiae; settings: 400 mM hydroxyurea added after 17 hours
Protocol: Inhibition of growth using hydroxyurea. Growth inhibition was performed using 400 mM hydroxyurea, added after 17 hours of anaerobic growth in xylose. Before and after growth inhibition, OD600 as well as sugar and ethanol concentrations were measured as above.

T1 sequence (P06245 whole entry M147G): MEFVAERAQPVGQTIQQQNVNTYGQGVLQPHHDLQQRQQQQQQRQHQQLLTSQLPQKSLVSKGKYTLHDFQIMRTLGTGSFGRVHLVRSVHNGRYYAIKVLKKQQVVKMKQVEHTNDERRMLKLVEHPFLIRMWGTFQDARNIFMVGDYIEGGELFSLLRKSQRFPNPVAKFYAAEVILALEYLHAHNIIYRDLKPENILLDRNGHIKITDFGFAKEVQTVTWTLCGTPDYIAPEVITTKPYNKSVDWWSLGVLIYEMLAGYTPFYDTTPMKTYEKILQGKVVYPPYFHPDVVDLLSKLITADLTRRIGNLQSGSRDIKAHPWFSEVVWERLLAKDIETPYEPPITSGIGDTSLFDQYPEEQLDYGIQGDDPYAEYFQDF

CC(C)(C)n1nc(Cc2cccc3ccccc23)c2c(N)ncnc21 [Strain 1-NM-PP1]
Effect on growth and fermentation during anaerobic xylose utilization [1]: rapidly inhibited growth and fermentation

O=S(=O)(NCCNC/C=C/c1ccc(Br)cc1)c1cccc2cnccc12 [Strain H-89]
Effect on phosphorylation of a PKA substrate in vitro ([2]; lysate from Y128 grown anaerobically on xylose): blocked
Effect on phosphorylation of a PKA target in vitro ([2]; lysate from Y184 bcy1Δ grown anaerobically on xylose): blocked

NC(=O)NO [hydroxyurea]
Effect on anaerobic xylose utilization [3]: does not promote anaerobic xylose utilization; also recorded: halted xylose utilization
Effect on growth (OD600) [3]: inhibits growth
